Assay results taken from patent US7632861B2, “Substituted heterocyclic ethers and their use in CNS disorders” (Bristol-Myers Squibb Company, priority 2007, dated 2009).

How the values were obtained:
NK-1 = target: T1, NK-1 (Homo sapiens, UniProt P25103); assay: NK1 radioligand binding assay ([125I]Substance P, U373 cell membranes); conditions: 1 hour at room temperature
T1 construct: endogenous in cells; host or cells: U373 cells (crude membranes)
Procedure: (§1) NK-1 Binding assay. Crude membrane suspensions were prepared for the NK1 and SERT radioligand binding assays from U373 cells or recombinant HEK-293 cells expressing hSERT, respectively. Cells were harvested from T-175 flasks as follows. The medium is removed from the flasks and the cells rinsed with HBSS without Ca and without Mg. The cells are then incubated for 5-10 minutes in 10 mM Tris-Cl, pH 7.5, 5 mM EDTA before the cells are lifted with a combination of pipetting and scraping, as needed. To prepare membranes, the cell suspension is collected into centrifuge bottles and homogenized for 30 seconds with a Polytron homogenizer. The suspension is centrifuged for 30 min @ 32,000×g, 4° C., then the supernatant is decanted and the pellet resuspended and homogenized in 50 mM Tris-Cl, pH 7.5, 1 mM EDTA for 10 seconds. The suspension is then centrifuged again for 30 min @ 32,000×g, 4° C. The supernatant is decanted and the pellet resuspended in 50 mM Tris-Cl, pH 7.5, 1 mM EDTA and briefly homogenized. A Bradford assay (Bio-rad) is performed and the membrane preparation diluted to 2 mg/ml with 50 mM Tris-Cl, pH 7.5, 1 mM EDTA. Aliquots are prepared, and then frozen and stored at −80° C.
NK1 radioligand binding assay. Compounds are dissolved in 100% DMSO at a concentration 100× the desired highest assay concentration, serially diluted 1:3 in 100% DMSO, and 0.6 ul/well of each solution is dispensed to a Nunc polypropylene, round bottom, 384 well plate. 100% inhibition is defined with 0.6 ul/well of 1 mM L-733,060 (Sigma L-137) dissolved in DMSO. 30 ul/well of a 2×U373 membrane preparation (267 ug/ml in 100 mM Tris-Cl, pH 7.5, 6 mM MgCl2, 0.2% (v/v) Sigma mammalian protease inhibitor cocktail (Sigma P-8340), and 4 ug/ml chymostatin, Sigma C-7268) and 30 ul/well of a 2×radioligand solution (400 pM [^125I]Substance P (Perkin Elmer NEX-190) in 1% (w/v) BSA (Sigma A-2153), 0.1 mg/ml bacitracin, Sigma B-0125) are added to the well and the reaction incubated for 1 hour at room temperature. The contents of the assay plate are then transferred to a Millipore MultiscreenHTS GF/B filter plate which has been pretreated with 0.5% PEI for at least one hour. The plate is vacuum filtered and washed with 7 washes of 100 ul/well of 20 mM Tris-Cl, pH 7.5, 0.5% (w/v) BSA chilled to 4° C. The filtration and washing is completed in less than 90 s. The plates are air-dried overnight, 12 ul/well of MicroScint scintillation fluid added, and the plates counted in a Trilux.
(§2) Data analysis. The raw data are normalized to percent inhibition using control wells defining 0% (DMSO only) and 100% (selective inhibitor) inhibition which are run on each plate. Each plate is run in triplicate, and the concentration response curve thus generated is fit using the four-parameter dose response equation, Y=Bottom+(Top-Bottom)/(1+10^((LogIC50-X)*HillSlope)) in order to determine the IC50 value for each compound. The radioligand concentration chosen for each assay corresponds to the Kd concentration determined through saturation binding analysis for each assay.

hSERT = target: T2, hSERT (Homo sapiens, UniProt P31645); assay: SERT radioligand binding assay ([125I]RTI-55, HEK-hSERT membranes); conditions: [125I]RTI-55, 1 hour at room temperature
T2 construct: expressed in transfected cells; host or cells: HEK-293 cells (crude membranes)
Procedure: as §1
SERT radioligand binding assay. Compounds are dissolved in 100% DMSO at a concentration 100× the desired highest assay concentration, serially diluted 1:3 in 100% DMSO, and 0.4 ul/well of each solution is dispensed to a Nunc polypropylene, round bottom, 384 well plate. 100% inhibition is defined with 0.4 ul/well of 1 mM fluoxetine (Sigma F-132) dissolved in DMSO. 20 ul/well of a 2×HEK-hSERT membrane preparation (15 ug/ml in 50 mM Tris-Cl, pH 7.5, 120 mM NaCl, 5 mM KCl) and 20 ul/well of a 2×radioligand solution (520 pM [^125I]RTI-55 (Perkin-Elmer NEX-272) in 50 mM Tris-Cl, pH 7.5, 120 mM NaCl, 5 mM KCl) are added to each well and the reaction incubated for 1 hour at room temperature. The contents of the assay plate are then transferred to a Millipore MultiscreenHTS GF/B filter plate which has been pretreated with 0.5% PEI for at least one hour. The plate is vacuum filtered and washed with 7 washes of 100 ul/well of 50 mM Tris-Cl, pH 7.5, 120 mM NaCl, 5 mM KCl chilled to 4° C. The filtration and washing is completed in less than 90 s. The plates are air-dried overnight, 12 ul/well of MicroScint scintillation fluid added, and the plates counted in a Trilux.
as §2

T2 sequence (P31645 whole entry): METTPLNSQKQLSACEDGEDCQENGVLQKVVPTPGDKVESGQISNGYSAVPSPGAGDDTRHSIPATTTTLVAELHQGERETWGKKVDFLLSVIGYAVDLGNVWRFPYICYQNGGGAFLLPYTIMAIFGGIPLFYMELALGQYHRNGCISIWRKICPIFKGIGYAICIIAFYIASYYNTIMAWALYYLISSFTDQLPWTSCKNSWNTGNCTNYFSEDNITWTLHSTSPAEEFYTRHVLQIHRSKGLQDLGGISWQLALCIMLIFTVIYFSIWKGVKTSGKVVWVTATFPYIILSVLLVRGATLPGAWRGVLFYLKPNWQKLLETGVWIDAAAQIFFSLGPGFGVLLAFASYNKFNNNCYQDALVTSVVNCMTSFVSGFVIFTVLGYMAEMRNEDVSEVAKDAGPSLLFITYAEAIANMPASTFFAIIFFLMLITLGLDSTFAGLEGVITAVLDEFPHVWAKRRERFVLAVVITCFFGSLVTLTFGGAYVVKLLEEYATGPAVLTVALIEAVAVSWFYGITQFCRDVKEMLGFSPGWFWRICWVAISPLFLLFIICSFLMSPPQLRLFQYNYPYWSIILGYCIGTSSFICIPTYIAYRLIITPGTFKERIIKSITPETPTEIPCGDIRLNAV
T1 sequence (P25103 whole entry): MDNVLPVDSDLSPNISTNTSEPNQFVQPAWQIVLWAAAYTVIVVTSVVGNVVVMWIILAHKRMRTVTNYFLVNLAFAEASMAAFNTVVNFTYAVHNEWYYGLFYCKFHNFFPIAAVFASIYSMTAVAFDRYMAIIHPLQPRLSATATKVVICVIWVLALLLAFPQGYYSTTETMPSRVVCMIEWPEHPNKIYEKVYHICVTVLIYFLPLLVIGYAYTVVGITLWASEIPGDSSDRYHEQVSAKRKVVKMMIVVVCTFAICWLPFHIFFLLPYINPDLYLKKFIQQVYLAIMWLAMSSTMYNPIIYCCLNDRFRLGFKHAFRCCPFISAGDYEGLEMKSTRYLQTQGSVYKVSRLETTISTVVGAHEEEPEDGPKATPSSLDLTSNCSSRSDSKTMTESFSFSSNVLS

Which results are given for `CC(OCC1(CCN(C)C)OCc2ccccc21)c1cc(C(F)(F)F)cc(C(F)(F)F)c1` (centres unmarked) [Example 29]?
IC50 (NK-1): 0.01 to 100 nM; IC50 (hSERT): > 300 nM

What does the source list for `CC(OCC1(CCN)OCc2ccccc21)c1cc(C(F)(F)F)cc(C(F)(F)F)c1` (centres unmarked) [Example 30]?
IC50 (NK-1): 0.01 to 100 nM; IC50 (hSERT): > 300 nM

What does the source list for `NCCC1(COCc2cc(-c3ccccc3Cl)cc(C(F)(F)F)c2)OCc2ccccc21` (centres unmarked) [Example 14]?
IC50 (NK-1): 100 to 300 nM; IC50 (hSERT): > 300 nM

With `CN(C)CCC1(COCc2cc(-c3ccc(C#N)cc3)cc(C(F)(F)F)c2)OCc2cc(C#N)ccc21` (centres unmarked) [Example 25] as the molecule, how does the IC50 (NK-1) read?
Its IC50 is 0.01 to 100 nM.

And the IC50 (hSERT)?
Its IC50 is over 300 nM.
